Experimental data reported in patent US9738637B2, “Histone demethylase inhibitors” (Quanticel Pharmaceuticals, Inc., priority 2013, dated 2017).
Counter-ions that a name gives are not always drawn.

Columns and labels:
Jarid1A = Jarid1A (Homo sapiens (Human), UniProt P29375); assay: Jarid1A in vitro enzyme inhibition assay (TR-FRET); type: biochemical; settings: H3K4me3-biotin peptide
JMJD2A = JMJD2A (Homo sapiens (Human), UniProt O75164); assay: JMJD2A in vitro enzyme inhibition assay (TR-FRET); type: biochemical; settings: H3K9me3-biotin peptide
Description: This assay determines the ability of a test compound to inhibit Jarid1A, Jarid1B, JMJD2C, and JMJD2A demethylase activity.
Reaction product was determined quantitatively by TR-FRET after the addition of detection reagent Phycolink Streptavidin-allophycocyanin (Prozyme) and Europium-anti-di-methylated histone H3 lysine 9 (H3K9me2) antibody (PerkinElmer) in the presence of 5 mM EDTA in LANCE detection buffer (PerkinElmer) at a final concentration of 50 nM and 1 nM, respectively.
The assay reaction was initiated by the following: 2 μl of the mixture of 900 nM H3K9me3-biotin labeled peptide and 6 μM alpha-ketoglutaric acid with 2 μl of 11-point serial diluted inhibitor in 3% DMSO were added to each well of plate, followed by the addition of 2 μl of 6 nM JMJD2A to initiate the reaction. The reaction mixture was incubated at room temperature for 30 minutes, and terminated by the addition of 6 μl of 5 mM EDTA in LANCE detection buffer containing 100 nM Phycolink Streptavidin-allophycocyanin and 2 nM Europium-anti-H3K9me2 antibody.
The ability of the compounds disclosed herein to inhibit demethylase activity was quantified and the respective IC50 value was determined.

Jarid1B = Jarid1B (Homo sapiens (Human), UniProt Q9UGL1); assay: Jarid1B in vitro enzyme inhibition assay (TR-FRET); type: biochemical; settings: TR-FRET, H3K4me3-biotin peptide; read-out: IC50 Jarid1B
KDM5A and KDM5B = assay: In vitro cell-based assay, ZR-75-1 cell line: tri-methyl H3K4 immuno-blotting (cellular inhibition of KDM5A/B); settings: ZR-75-1 breast cancer cells, 72 hours, read-out: IC50 ZR-75-1 cell-MOA
Description: This quantitative immuno-blotting assay measures the amount tri-methylated histone H3 at amino acid Lysine number 4, a specific substrate […] of the direct enzymatic activity of the histone demethylases KDM5A and KDM5B from extracts of the ZR-75-1 breast cancer cell line.
This assay is a fluorometric immunoassay for the quantification of tri-methyl H3K4 extracted from cells treated with test compound and is used as a measure of the cellular inhibition of KDM5A/B.
Cells were left in the presence of test compound for 72 hours. Extracts were prepared containing all of the cellular histone material using detergent based lysis and sonication methods. These lysates were subsequently normalized for total protein content using a colorimetric bicinchonic acid assay (MicroBCA Pierce/Thermo Scientific). Normalized cell extracts were then subjected to typical immuno-blotting procedures using NuPage reagents (Life Technologies). Electrophoretically separated histones were then transferred and immobilized using polyvinylidene difluoride membrane (Immobilon-FL Millipore). The amount of tri-methylated lysine 4 of histone H3 was detected using an antibody specific to the tri-methylated state (Cell Signaling Technologies) and quantified on an infrared imager using a densitometry software package (Odyssey CLx, Image Studio, Li-Cor). This background subtracted densitometry value was reported as a ration of the GAPDH amount for that sample and then calculated as a percent of the DMSO treated sample. The software package XL-fit (IDBS) was then used to calculate a relative IC50 value for the dilution series of a given test compound according to the equation: fit=(D+((Vmax*(x^n))/((x^n)+(Km^n)))).

JMJD2C = JMJD2C (Homo sapiens (Human), UniProt Q9H3R0); assay: JMJD2C in vitro enzyme inhibition assay (TR-FRET); type: biochemical; settings: TR-FRET, H3K9me3-biotin peptide; read-out: IC50 JNJD2C
Sequence of JMJD2C (Q9H3R0 2-372): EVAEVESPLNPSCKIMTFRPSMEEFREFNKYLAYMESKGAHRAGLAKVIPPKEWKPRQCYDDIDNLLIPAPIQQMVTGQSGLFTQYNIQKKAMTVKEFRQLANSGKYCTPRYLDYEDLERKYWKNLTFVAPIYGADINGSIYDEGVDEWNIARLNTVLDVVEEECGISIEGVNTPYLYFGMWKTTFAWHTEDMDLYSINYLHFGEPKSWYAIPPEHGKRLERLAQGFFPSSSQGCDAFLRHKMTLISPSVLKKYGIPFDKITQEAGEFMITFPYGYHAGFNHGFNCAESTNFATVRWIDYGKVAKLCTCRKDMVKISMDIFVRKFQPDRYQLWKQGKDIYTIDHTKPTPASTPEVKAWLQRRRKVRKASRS

Sequence of JMJD2A (O75164 1-350): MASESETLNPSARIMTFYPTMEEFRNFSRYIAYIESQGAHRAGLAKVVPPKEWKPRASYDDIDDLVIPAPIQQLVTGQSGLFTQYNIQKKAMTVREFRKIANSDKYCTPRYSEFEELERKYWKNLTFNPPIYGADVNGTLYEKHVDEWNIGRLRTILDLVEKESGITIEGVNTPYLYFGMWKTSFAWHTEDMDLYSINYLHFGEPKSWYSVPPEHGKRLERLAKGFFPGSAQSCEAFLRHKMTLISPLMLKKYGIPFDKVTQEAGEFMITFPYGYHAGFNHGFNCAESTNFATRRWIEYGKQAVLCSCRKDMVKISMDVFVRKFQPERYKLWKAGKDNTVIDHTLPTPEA
Sequence of Jarid1B (Q9UGL1 2-751): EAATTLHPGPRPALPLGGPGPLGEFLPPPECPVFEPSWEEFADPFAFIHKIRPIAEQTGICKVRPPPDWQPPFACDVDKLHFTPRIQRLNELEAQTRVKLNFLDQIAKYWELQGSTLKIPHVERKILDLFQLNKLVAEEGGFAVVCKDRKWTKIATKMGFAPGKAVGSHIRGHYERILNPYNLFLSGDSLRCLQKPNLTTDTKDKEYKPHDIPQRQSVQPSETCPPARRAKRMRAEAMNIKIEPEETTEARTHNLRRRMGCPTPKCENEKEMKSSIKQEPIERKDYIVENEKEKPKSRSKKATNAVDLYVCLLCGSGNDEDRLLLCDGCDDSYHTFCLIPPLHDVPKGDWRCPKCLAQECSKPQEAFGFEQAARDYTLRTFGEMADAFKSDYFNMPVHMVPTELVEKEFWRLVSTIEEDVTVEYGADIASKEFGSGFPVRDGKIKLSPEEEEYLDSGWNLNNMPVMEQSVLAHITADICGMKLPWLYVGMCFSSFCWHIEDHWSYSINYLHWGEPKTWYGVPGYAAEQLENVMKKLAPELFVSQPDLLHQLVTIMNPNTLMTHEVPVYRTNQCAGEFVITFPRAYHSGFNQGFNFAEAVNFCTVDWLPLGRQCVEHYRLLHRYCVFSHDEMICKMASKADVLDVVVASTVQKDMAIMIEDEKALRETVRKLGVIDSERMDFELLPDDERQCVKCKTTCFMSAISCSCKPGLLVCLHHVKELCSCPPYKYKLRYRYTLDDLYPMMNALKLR
Sequence of Jarid1A (P29375 1-1090): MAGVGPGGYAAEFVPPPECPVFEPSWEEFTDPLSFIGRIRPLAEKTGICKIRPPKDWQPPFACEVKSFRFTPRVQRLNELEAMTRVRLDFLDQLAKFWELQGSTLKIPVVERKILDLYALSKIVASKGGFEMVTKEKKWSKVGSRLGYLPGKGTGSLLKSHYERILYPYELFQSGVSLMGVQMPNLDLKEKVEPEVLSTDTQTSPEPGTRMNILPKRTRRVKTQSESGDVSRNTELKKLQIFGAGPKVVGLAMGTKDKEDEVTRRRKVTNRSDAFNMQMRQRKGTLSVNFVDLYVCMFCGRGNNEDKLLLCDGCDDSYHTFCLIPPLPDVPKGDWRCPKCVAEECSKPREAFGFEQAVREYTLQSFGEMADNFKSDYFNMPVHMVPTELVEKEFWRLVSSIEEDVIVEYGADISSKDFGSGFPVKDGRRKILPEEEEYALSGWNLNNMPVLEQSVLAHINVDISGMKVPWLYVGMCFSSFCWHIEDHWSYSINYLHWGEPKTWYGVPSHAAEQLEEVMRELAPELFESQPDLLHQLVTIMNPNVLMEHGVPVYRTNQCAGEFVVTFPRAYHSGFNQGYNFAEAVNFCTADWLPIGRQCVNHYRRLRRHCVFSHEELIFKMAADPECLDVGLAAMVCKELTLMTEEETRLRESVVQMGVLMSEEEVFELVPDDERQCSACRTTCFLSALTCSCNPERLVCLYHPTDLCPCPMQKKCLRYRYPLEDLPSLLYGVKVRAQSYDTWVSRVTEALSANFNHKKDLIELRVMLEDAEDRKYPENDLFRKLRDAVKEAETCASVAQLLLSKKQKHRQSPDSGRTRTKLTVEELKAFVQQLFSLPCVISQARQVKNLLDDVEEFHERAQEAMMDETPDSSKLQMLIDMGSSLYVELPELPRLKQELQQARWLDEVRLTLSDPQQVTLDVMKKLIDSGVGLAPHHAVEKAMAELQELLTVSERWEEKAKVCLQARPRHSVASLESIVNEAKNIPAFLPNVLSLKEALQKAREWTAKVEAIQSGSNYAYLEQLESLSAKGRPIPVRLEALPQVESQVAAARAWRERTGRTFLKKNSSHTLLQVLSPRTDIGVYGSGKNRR

Compound | IC50 (Jarid1A) [nM] | IC50 (JMJD2A) [nM] | IC50 (Jarid1B) [nM] | IC50 (KDM5A and KDM5B) [nM] | IC50 (JMJD2C) [nM]
O=C(O)c1ccnc2cc(Cc3ccccc3)[nH]c12 [Example 7, 2-benzyl-1H-pyrrolo[3,2-b]pyridine-7-carboxylic acid, sodium salt] | 100 to 1000 | 100 to 1000 | 100 to 1000 | > 10000 | 100 to 1000
Cc1cc(Cc2cc3nccc(C(=O)O)c3[nH]2)ccc1Cl [Example 134, 2-(4-chloro-3-methylbenzyl)-1H-pyrrolo[3,2-b]pyridine-7-carboxylic acid] | 1000 to 10000 | 100 to 1000 | 100 to 1000 | – | < 100
O=C(O)c1ccnc2cc(Cc3ccc(Cl)c(C(F)(F)F)c3)[nH]c12 [Example 136, 2-[4-chloro-3-(trifluoromethyl)benzyl]-1H-pyrrolo[3,2-b]pyridine-7-carboxylic acid] | 1000 to 10000 | 100 to 1000 | 1000 to 10000 | – | < 100
O=C(O)c1ccnc2cc(Cc3ccc(Cl)c(OCC4CC4)c3)[nH]c12 [Example 138, 2-[4-chloro-3-(cyclopropylmethoxy)benzyl]-1H-pyrrolo[3,2-b]pyridine-7-carboxylic acid] | 100 to 1000 | 1000 to 10000 | < 100 | – | < 100
O=C(O)c1ccnc2cc(Cc3ccc(Cl)c(OC(F)(F)F)c3)[nH]c12 [Example 142, 2-[4-chloro-3-(trifluoromethoxy)benzyl]-1H-pyrrolo[3,2-b]pyridine-7-carboxylic acid] | 100 to 1000 | 100 to 1000 | < 100 | – | < 100
